Melting point and IC50 data for 16 compounds are collected here from US20220298135A1, “5-HETEROARYL-PYRIDIN-2-AMINE COMPOUNDS AS NEUROPEPTIDE FF RECEPTOR ANTAGONISTS” (Domain Therapeutics, priority 2019, published 2022).

Data set [1] concerns the target T1, human NPFFR1 (hNPFFR1) receptor (Homo sapiens, UniProt Q9GZQ6).
T1 construct: expressed in transfected cells; host or cells: HEK-293 T cells, transient co-transfection with polyethylenimine
Briefly: Human NPFFR1 evaluation using BRET biosensors (antagonist IC50). The settings on record: hNPFFR1 transiently over-expressed in HEK-293 T cells; BRET signal; stimulation by EC80 RFRP-3. In kind it is cell-based. In short, it runs like this:
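HEK-293T cells co-transfected with receptor, GαoB and Gi-effector BRET biosensor pair, assayed 48 h later. Compound 10 min, then EC80 RFRP-3 with 10 min luminescence read; IC50 from 20-concentration variable-slope fit, duplicate, two independent experiments.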

Structures are written as SMILES. A value given as a limit tells only on which side of the number the result lay.

T1 sequence (Q9GZQ6 whole entry): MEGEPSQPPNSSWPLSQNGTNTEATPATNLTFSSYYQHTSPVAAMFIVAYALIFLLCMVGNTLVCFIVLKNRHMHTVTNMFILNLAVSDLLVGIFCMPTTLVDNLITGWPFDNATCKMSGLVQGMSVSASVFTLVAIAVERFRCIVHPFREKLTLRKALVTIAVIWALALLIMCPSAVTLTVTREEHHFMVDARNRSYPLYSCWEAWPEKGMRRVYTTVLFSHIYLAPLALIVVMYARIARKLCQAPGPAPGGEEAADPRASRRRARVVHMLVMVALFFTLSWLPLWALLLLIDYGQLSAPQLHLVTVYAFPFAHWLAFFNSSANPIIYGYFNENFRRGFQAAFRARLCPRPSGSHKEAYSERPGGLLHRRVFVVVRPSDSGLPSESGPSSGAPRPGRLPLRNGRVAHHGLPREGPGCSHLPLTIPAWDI

Consider `CCc1nc(N)ccc1-c1cccc2ccc(=O)n(C)c12.Cl` [Example 156, 8-(6-amino-2-ethylpyridin-3-yl)-1-methylquinolin-2(1H)-one], for which the melting point was in the range of 132 to 145 °C. The IC50 in data set [1] was greater than 1000 nM.
Compound `CCc1nc(N)ccc1-c1ccc(C)c2cccnc12.Cl` [Example 96, 6-ethyl-5-(5-methylquinolin-8-yl)pyridin-2-amine] displayed a melting point greater than 250 °C. For the same compound, the IC50 in data set [1] was 100 to 1000 nM.
Compound `CCc1nc(N)ccc1-c1cc(F)ccc1-c1ccc(N2CCOCC2)nc1.Cl` [Example 83, 6-ethyl-5-(5-fluoro-2-(6-morpholinopyridin-3-yl)phenyl)pyridin-2-amine] returned a melting point of 85 to 100 °C. Besides, the half-inhibitory concentration (IC50) in data set [1] lay in the range of 100 to 1000 nM.
Taken in the same sequence, the figures for `CCc1nc(N)ccc1-c1nccc2cccnc12.Cl` [Example 100, 6-ethyl-5-(1,7-naphthyridin-8-yl)pyridin-2-amine] were 160 to 200 °C and greater than 1000 nM.
For the compound `CCc1nc(N)ccc1-c1cccc2ccc(C3CCOCC3)nc12.Cl` [Example 121, 6-ethyl-5-(2-(tetrahydro-2H-pyran-4-yl)quinolin-8-yl)pyridin-2-amine], the melting point was in the range of 175 to 185 °C. Also, in data set [1], the IC50 was less than 100 nM.
Regarding `CCc1nc(N)ccc1-c1cccc2c1N(C)CCC2.Cl` [Example 165, 6-ethyl-5-(1-methyl-1,2,3,4-tetrahydroquinolin-8-yl)pyridin-2-amine], the melting point is 155 to 165 °C. The compound also gave an IC50 in data set [1] of 100 to 1000 nM.
Regarding `Cl.Nc1ccc(-c2cccc3ccncc23)c(C2CC2)n1` [Example 15, 6-Cyclopropyl-5-(8-isoquinolyl)pyridin-2-amine], the melting point was 200 to 215 °C. Further, the 50% inhibitory concentration (IC50) in data set [1] lay within 100 to 1000 nM.
Taken in the same sequence, the figures for `Nc1ccc(-c2cccc3cc[nH]c23)c(N)n1` [Example 25, 3-(1H-indol-7-yl)pyridine-2,6-diamine] were 62 to 70 °C and less than 100 nM.
Taken in the same sequence, the figures for `CCc1nc(N)ccc1-c1c(C(N)=O)ccc2cccnc12.Cl` [Example 152, 8-(6-amino-2-ethylpyridin-3-yl)quinoline-7-carboxamide] were 150 to 164 °C and greater than 1000 nM.
For `CCc1nc(N)ccc1-c1c(F)ccc2cccnc12.Cl` [Example 65, 6-ethyl-5-(7-fluoroquinolin-8-yl)pyridin-2-amine], the melting point is 150 to 195 °C. This compound also had an IC50 in data set [1] of less than 100 nM.
`Cl.Nc1ccc(-c2ccccc2-c2cccnc2)c(N)n1` [Example 45, 3-[2-(3-pyridyl)phenyl]pyridine-2,6-diamine] gave a melting point of 100 to 135 °C. Further, in data set [1], the IC50 was in the range of 100 to 1000 nM.
Taken in the same sequence, the figures for `CC(C)CCc1nc(N)ccc1-c1c(F)ccc2cccnc12.Cl` [Example 73, 5-(7-fluoroquinolin-8-yl)-6-isopentylpyridin-2-amine] were 100 to 140 °C and less than 100 nM.
`CCc1nc(N)ccc1-c1c(F)ccc2ccc(C)nc12.Cl` [Example 76, 6-ethyl-5-(7-fluoro-2-methylquinolin-8-yl)pyridin-2-amine] yielded a melting point of 95 to 120 °C. The IC50 in data set [1] is less than 100 nM.
On the same counts, the results for `CCc1nc(N)ccc1-c1cccc2c1OCCC2.Cl` [Example 66, 5-(chroman-8-yl)-6-ethylpyridin-2-amine] are 180 to 192 °C and less than 100 nM.
Taken in the same sequence, the figures for `Cl.Nc1ccc(-c2cccc3c2sc2ccccc23)c(N)n1` [Example 39, 3-Dibenzothiophen-4-ylpyridine-2,6-diamine] were 165 to 170 °C and less than 100 nM.
On the same counts, the results for `CCc1nc(N)ccc1-c1cccc2ccc(C(=O)N3CCCCCC3)nc12.Cl` [Example 169, (8-(6-amino-2-ethylpyridin-3-yl)quinolin-2-yl)(azepan-1-yl)methanone] are 140 to 144 °C and less than 100 nM.
